Test results reported in patent publication US20230113037A1 (Bayer Aktiengesellschaft, priority 2019, published 2023).
Where two headings read alike, the source gives them in different places.

How the values were obtained:
AHR [1] = target: T1, AHR (Mus musculus, UniProt P30561); experiment: In vitro assay 3: antagonism in mouse cell line (AHR transactivation, firefly luciferase reporter, kynurenic acid prestimulated); type: cell-based
T1 sequence (P30561 1-848 P471L/N533S/M589L): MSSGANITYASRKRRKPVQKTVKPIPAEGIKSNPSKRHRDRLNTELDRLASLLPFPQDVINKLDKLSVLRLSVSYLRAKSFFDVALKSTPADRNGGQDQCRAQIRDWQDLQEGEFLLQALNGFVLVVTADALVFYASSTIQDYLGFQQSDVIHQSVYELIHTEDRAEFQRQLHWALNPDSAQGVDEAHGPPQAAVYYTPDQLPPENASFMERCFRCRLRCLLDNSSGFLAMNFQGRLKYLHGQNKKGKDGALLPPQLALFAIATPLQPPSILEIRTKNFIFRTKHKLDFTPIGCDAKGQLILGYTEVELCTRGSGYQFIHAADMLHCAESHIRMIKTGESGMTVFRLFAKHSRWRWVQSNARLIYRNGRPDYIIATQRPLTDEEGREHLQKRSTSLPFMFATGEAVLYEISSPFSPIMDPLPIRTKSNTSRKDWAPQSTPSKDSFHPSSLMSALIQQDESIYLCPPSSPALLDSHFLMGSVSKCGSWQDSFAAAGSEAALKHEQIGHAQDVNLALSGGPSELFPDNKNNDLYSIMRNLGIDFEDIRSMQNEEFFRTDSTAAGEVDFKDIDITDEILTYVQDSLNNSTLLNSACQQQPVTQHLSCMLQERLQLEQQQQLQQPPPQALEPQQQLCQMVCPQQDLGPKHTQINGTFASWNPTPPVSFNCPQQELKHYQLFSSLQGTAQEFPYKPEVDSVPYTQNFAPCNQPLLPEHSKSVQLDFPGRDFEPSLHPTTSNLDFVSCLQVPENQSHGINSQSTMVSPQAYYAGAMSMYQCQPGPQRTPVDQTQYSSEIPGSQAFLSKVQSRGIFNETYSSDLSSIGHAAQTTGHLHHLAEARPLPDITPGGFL
How it was run: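 Cells were first stimulated with kynurenic acid, then exposed to test compound, after which firefly luciferase from a DRE-containing AHR reporter was read out. Signal was scaled between positive and negative controls. Cells not given kynurenic acid provided the inhibition reference.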

AHR [2] = target: T2, AHR (Homo sapiens, UniProt P35869); experiment: In vitro assay 1: antagonism in human cell line (AHR transactivation, firefly luciferase reporter, kynurenic acid prestimulated); type: cell-based; details: AHR Antagonism Human IC50 [M]
T2 construct: U87 MG glioblastoma cells (ATCC #HTB-14) endogenously expressing AHR; endogenous in cells; host or cells: U87 MG glioblastoma cells (ATCC #HTB-14)
T2 sequence (P35869 11-848): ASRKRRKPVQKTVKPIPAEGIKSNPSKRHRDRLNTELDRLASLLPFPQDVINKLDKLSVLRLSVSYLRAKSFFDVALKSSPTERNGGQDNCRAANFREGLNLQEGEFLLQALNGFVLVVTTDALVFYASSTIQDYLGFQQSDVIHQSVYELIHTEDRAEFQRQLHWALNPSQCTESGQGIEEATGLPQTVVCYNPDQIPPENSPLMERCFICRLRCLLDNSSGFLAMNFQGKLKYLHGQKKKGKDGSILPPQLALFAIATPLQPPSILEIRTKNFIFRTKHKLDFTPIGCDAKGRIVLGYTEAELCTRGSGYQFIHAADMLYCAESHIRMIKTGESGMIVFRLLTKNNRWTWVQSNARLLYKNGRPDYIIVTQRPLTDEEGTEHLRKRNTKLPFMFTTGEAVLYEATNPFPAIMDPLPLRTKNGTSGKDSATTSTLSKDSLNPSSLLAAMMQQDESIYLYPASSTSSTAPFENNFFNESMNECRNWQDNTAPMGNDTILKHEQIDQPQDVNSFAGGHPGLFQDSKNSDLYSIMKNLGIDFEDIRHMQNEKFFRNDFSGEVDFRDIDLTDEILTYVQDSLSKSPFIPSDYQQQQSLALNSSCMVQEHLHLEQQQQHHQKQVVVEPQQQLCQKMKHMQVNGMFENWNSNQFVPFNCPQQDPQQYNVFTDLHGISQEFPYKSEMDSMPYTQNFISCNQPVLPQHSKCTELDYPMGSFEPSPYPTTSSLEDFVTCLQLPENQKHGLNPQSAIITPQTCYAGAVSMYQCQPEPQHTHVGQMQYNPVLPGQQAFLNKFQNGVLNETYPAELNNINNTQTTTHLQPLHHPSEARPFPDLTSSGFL
How it was run: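 U87 MG glioblastoma cells with endogenous AHR, stably carrying a DRE-driven firefly luciferase reporter and constitutive Renilla reporter, prestimulated with kynurenic acid before compound addition. Firefly and Renilla read by dual luciferase; Renilla flags toxicity; normalized to controls (150 μM kynurenic acid + 5 μM staurosporine as full inhibition); repeat values averaged or median.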

[3] = mouse Hepa 1c1c7 cells, 200 μM kynurenic acid, 20 hours, read-out: AHR Antagonism Mouse IC50

SMILES | IC50 (AHR [1]; [3]) [nM] | IC50 (AHR [2]) [M] | IC50 (AHR [1]; read-out: AHR Antagonism Mouse IC50, mouse Hepa 1c1c7 cells, 200 μM kynurenic acid, 20 hours) [nM]
CSc1ccc(-c2nc3c4ccccc4nc(N[C@@H]4CCCCNC4=O)n3n2)cc1 [Example 202, (3R)-3-({2-[4-(methylsulfanyl)phenyl][1,2,4]triazolo[1,5-c]quinazolin-5-yl}amino)azepan-2-one] | 0.657 | 5.17e-10 | 
O=C1NCCCC[C@H]1Nc1nc2c(C(F)(F)F)cccc2c2nc(-c3ccc(F)cc3)nn12 [Example 203, (3R)-3-{[2-(4-fluorophenyl)-7-(trifluoromethyl)[1,2,4]triazolo[1,5-c]quinazolin-5-yl]amino}azepan-2-one] | 0.48 | 6.29e-10 | 
COc1ccc(-c2nc3c4cccc(C(F)(F)F)c4nc(N[C@@H]4CCCCNC4=O)n3n2)cc1 [Example 204, (3R)-3-{[2-(4-methoxyphenyl)-7-(trifluoromethyl)[1,2,4]triazolo[1,5-c]quinazolin-5-yl]amino}azepan-2-one] | 1.02 | 1.15e-09 | 
COc1ccc(-c2nc3c4cccc(OC)c4nc(N[C@@H]4CCCCNC4=O)n3n2)cc1 [Example 205, (3R)-3-{[7-methoxy-2-(4-methoxyphenyl)[1,2,4]triazolo[1,5-c]quinazolin-5-yl]amino}azepan-2-one] | 7.65 | 2.15e-09 | 
COc1ccc(-c2nc3c4cccc(C5CC5)c4nc(N[C@@H]4CCCCNC4=O)n3n2)cc1 [Example 206, (3R)-3-{[7-cyclopropyl-2-(4-methoxyphenyl)[1,2,4]triazolo[1,5-c]quinazolin-5-yl]amino}azepan-2-one] | 7.88 | 9.97e-09 | 
Cn1cc(-c2nc3c4cccc(C5CC5)c4nc(N[C@@H]4CCCCNC4=O)n3n2)cn1 [Example 207, (3R)-3-{[7-cyclopropyl-2-(1-methyl-1H-pyrazol-4-yl)[1,2,4]triazolo[1,5-c]quinazolin-5-yl]amino}azepan-2-one] | 242 | 1.77e-08 | 
O=C1NCCCC[C@H]1Nc1nc2c(Br)cccc2c2nc(-c3ccccc3OC(F)(F)F)nn12 [Example 208, (3R)-3-({7-bromo-2-[2-(trifluoromethoxy)phenyl][1,2,4]triazolo[1,5-c]quinazolin-5-yl}amino)azepan-2-one] | 23.8 | 1.34e-06 | 
Cn1cc(-c2nc3c4cccc(Br)c4nc(N[C@@H]4CCCCNC4=O)n3n2)cn1 [Example 212, (3R)-3-{[7-bromo-2-(1-methyl-1H-pyrazol-4-yl)[1,2,4]triazolo[1,5-c]quinazolin-5-yl]amino}azepan-2-one] | 2.49 | 9.71e-10 | 
O=C1NCCCC[C@H]1Nc1nc2c(Br)cccc2c2nc(-c3ccncc3)nn12 [Example 216, (3R)-3-{[7-bromo-2-(pyridin-4-yl)[1,2,4]triazolo[1,5-c]quinazolin-5-yl]amino}azepan-2-one] | 12.1 | 3.35e-09 | 
COc1ccc(-c2nc3c4cccc(Br)c4nc(N[C@@H]4CCNC4=O)n3n2)cc1 [Example 218, (3R)-3-{[7-bromo-2-(4-methoxyphenyl)[1,2,4]triazolo[1,5-c]quinazolin-5-yl]amino}pyrrolidin-2-one] | 29.4 | 8.68e-09 | 
O=C1NCC[C@H]1Nc1nc2c(Br)cccc2c2nc(-c3ccccc3OC(F)(F)F)nn12 [Example 219, (3R)-3-({7-bromo-2-[2-(trifluoromethoxy)phenyl][1,2,4]triazolo[1,5-c]quinazolin-5-yl}amino)pyrrolidin-2-one] | 7.14 | 8.15e-08 | 
O=C1NCCC[C@H]1Nc1nc2c(Br)cccc2c2nc(-c3ccccc3OC(F)(F)F)nn12 [Example 220, (3R)-3-({7-bromo-2-[2-(trifluoromethoxy)phenyl][1,2,4]triazolo[1,5-c]quinazolin-5-yl}amino)piperidin-2-one] | 6.76 | 2e-08 | 
Cn1cc(-c2nc3c4cccc(Br)c4nc(N[C@@H]4CCCNC4=O)n3n2)cn1 [Example 221, (3R)-3-{[7-bromo-2-(1-methyl-1H-pyrazol-4-yl)[1,2,4]triazolo[1,5-c]quinazolin-5-yl]amino}piperidin-2-one] | 653 | 3.46e-07 | 
COc1ccc(-c2nc3c4cccc(Br)c4nc(N[C@@H]4CCCNC4=O)n3n2)cc1 [Example 223, (3R)-3-{[7-bromo-2-(4-methoxyphenyl)[1,2,4]triazolo[1,5-c]quinazolin-5-yl]amino}piperidin-2-one] | 111 | 5.32e-08 | 
Cn1cc(-c2nc3c4cc(F)ccc4nc(N[C@@H]4CCCCNC4=O)n3n2)cn1 [Example 232, (3R)-3-{[9-fluoro-2-(1-methyl-1H-pyrazol-4-yl)[1,2,4]triazolo[1,5-c]quinazolin-5-yl]amino}azepan-2-one] |  | 8.83e-09 | 3.88

Now from value to compound, other results behind:

IC50 (AHR [1]; [3]) [nM] | IC50 (AHR [2]) [M] | SMILES | IC50 (AHR [1]; read-out: AHR Antagonism Mouse IC50, mouse Hepa 1c1c7 cells, 200 μM kynurenic acid, 20 hours) [nM]
38.9 | 3.01e-08 | COc1ccc(-c2nc3c4ccc(C)cc4nc(N[C@@H]4CCCCNC4=O)n3n2)cc1 [Example 228, (3R)-3-{[2-(4-methoxyphenyl)-8-methyl[1,2,4]triazolo[1,5-c]quinazolin-5-yl]amino}azepan-2-one] | 
101 | 5.82e-08 | COc1ccc(-c2nc3c4ccc(Br)cc4nc(N[C@@H]4CCCCNC4=O)n3n2)cc1 [Example 229, (3R)-3-{[8-bromo-2-(4-methoxyphenyl)[1,2,4]triazolo[1,5-c]quinazolin-5-yl]amino}azepan-2-one] | 
0.406 | 8.14e-10 | COc1ccc(-c2nc3c4cc(F)ccc4nc(N[C@@H]4CCCCNC4=O)n3n2)cc1 [Example 231, (3R)-3-{[9-fluoro-2-(4-methoxyphenyl)[1,2,4]triazolo[1,5-c]quinazolin-5-yl]amino}azepan-2-one] | 
1.4 | 1.7e-09 | O=C1NCCCC[C@H]1Nc1nc2ccc(F)cc2c2nc(-c3ccccc3F)nn12 [Example 234, (3R)-3-{[9-fluoro-2-(2-fluorophenyl)[1,2,4]triazolo[1,5-c]quinazolin-5-yl]amino}azepan-2-one] | 
1.14 | 2.34e-09 | COc1ccc(-c2nc3c4cc(Cl)ccc4nc(N[C@@H]4CCCCNC4=O)n3n2)cc1 [Example 235, (3R)-3-{[9-chloro-2-(4-methoxyphenyl)[1,2,4]triazolo[1,5-c]quinazolin-5-yl]amino}azepan-2-one] | 
21.2 | 2.62e-08 | Cn1cc(-c2nc3c4cc(Cl)ccc4nc(N[C@@H]4CCCCNC4=O)n3n2)cn1 [Example 236, (3R)-3-{[9-chloro-2-(1-methyl-1H-pyrazol-4-yl)[1,2,4]triazolo[1,5-c]quinazolin-5-yl]amino}azepan-2-one] | 
38.7 | 1.33e-08 | COc1ccc(-c2nc3c4cc(OC)ccc4nc(N[C@@H]4CCCCNC4=O)n3n2)cc1 [Example 237, (3R)-3-{[9-methoxy-2-(4-methoxyphenyl)[1,2,4]triazolo[1,5-c]quinazolin-5-yl]amino}azepan-2-one] | 
344 | 1.69e-07 | COc1ccc2nc(N[C@@H]3CCCCNC3=O)n3nc(-c4cnn(C)c4)nc3c2c1 [Example 238, (3R)-3-{[9-methoxy-2-(1-methyl-1H-pyrazol-4-yl)[1,2,4]triazolo[1,5-c]quinazolin-5-yl]amino}azepan-2-one] | 
